From PubChem BioAssay AID1963864 (Molecular Pharmacology Branch, DTP, NCI, 2024)

System: KRAS PDC multicell spheroid viability
Assay: Anticancer human tumor 521955-158-R6-J3-PDC patient-derived pancreatic carcinoma cell line growth inhibition [KRAS2]
Conditions: for IC50: curve of first compound; for viability, T/C: stronger effect = lower value
How it was run: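 Combination screen of spheroid viability in tumor-cell co-cultures with endothelial (HUVEC) and mesenchymal stem cell stroma. Each agent was tested in half-log dilutions, topping at clinical Cmax or at 10 microM without a known Cmax.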

[1] = second compound 0.1 µM, first compound 0.000316 µM
[2] = second compound 0.1 µM, first compound 0.001 µM
[3] = second compound 0.1 µM, first compound 0.00316 µM
[4] = second compound 0.1 µM, first compound 0.01 µM
[5] = second compound 0.1 µM, first compound 0.0316 µM
[6] = second compound 0.316 µM, first compound 0.000316 µM
[7] = second compound 0.316 µM, first compound 0.001 µM
[8] = second compound 0.316 µM, first compound 0.00316 µM
[9] = second compound 0.316 µM, first compound 0.01 µM
[10] = second compound 0.316 µM, first compound 0.0316 µM
[11] = second compound 1 µM, first compound 0.000316 µM
[12] = second compound 1 µM, first compound 0.001 µM
[13] = second compound 1 µM, first compound 0.00316 µM
[14] = second compound 1 µM, first compound 0.01 µM
[15] = second compound 1 µM, first compound 0.0316 µM
[16] = second compound 3.16 µM, first compound 0.000316 µM
[17] = second compound 3.16 µM, first compound 0.001 µM
[18] = second compound 3.16 µM, first compound 0.00316 µM
[19] = second compound 3.16 µM, first compound 0.01 µM
[20] = second compound 3.16 µM, first compound 0.0316 µM
[21] = second compound 10 µM, first compound 0.000316 µM
[22] = second compound 10 µM, first compound 0.001 µM
[23] = second compound 10 µM, first compound 0.00316 µM
[24] = second compound 10 µM, first compound 0.01 µM
[25] = second compound 10 µM, first compound 0.0316 µM
[26] = second compound 0.1 µM, first compound 0.1 µM
[27] = second compound 0.316 µM, first compound 0.1 µM
[28] = second compound 1 µM, first compound 0.1 µM
[29] = second compound 3.16 µM, first compound 0.1 µM
[30] = second compound 10 µM, first compound 0.1 µM
[31] = second compound 0.1 µM, first compound 0.316 µM
[32] = second compound 0.1 µM, first compound 1 µM
[33] = second compound 0.1 µM, first compound 3.16 µM
[34] = second compound 0.1 µM, first compound 10 µM
[35] = second compound 0.316 µM, first compound 0.316 µM
[36] = second compound 0.316 µM, first compound 1 µM
[37] = second compound 0.316 µM, first compound 3.16 µM
[38] = second compound 0.316 µM, first compound 10 µM
[39] = second compound 1 µM, first compound 0.316 µM
[40] = second compound 1 µM, first compound 1 µM
[41] = second compound 1 µM, first compound 3.16 µM
[42] = second compound 1 µM, first compound 10 µM
[43] = second compound 3.16 µM, first compound 0.316 µM
[44] = second compound 3.16 µM, first compound 1 µM
[45] = second compound 3.16 µM, first compound 3.16 µM
[46] = second compound 3.16 µM, first compound 10 µM
[47] = second compound 10 µM, first compound 0.316 µM
[48] = second compound 10 µM, first compound 1 µM
[49] = second compound 10 µM, first compound 3.16 µM
[50] = second compound 10 µM, first compound 10 µM
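Further: drug exposure lasted seven days.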
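Wherever viability, T/C is given: 100% = DMSO vehicle wells and lower means fewer viable cells.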

SMILES: CC(=O)Nc1cccc(-n2c(=O)n(C3CC3)c(=O)c3c(Nc4ccc(I)cc4F)n(C)c(=O)c(C)c32)c1 + CNCc1ccccc1-c1csc(C(C)Nc2nc(C)nc3cc(OC)c(OC)cc23)c1
- IC50 (second compound 0.1 µM): 16.7 nM
- IC50 (second compound 0.316 µM): 15.1 nM
- IC50 (second compound 1 µM): 4.73 nM
- IC50 (second compound 3.16 µM): < 0.1 nM
- IC50 (second compound 10 µM): < 0.1 nM
- viability, T/C (second compound 0.1 µM, first compound 0.0001 µM): 84.3%
- viability, T/C [1]: 83.3%
- viability, T/C [2]: 88.9%
- viability, T/C [3]: 75%
- viability, T/C [4]: 60.7%
- viability, T/C [5]: 37.4%
- viability, T/C (second compound 0.316 µM, first compound 0.0001 µM): 70.3%
- viability, T/C [6]: 90.2%
- viability, T/C [7]: 80.8%
- viability, T/C [8]: 72.4%
- viability, T/C [9]: 60%
- viability, T/C [10]: 33.2%
- viability, T/C (second compound 1 µM, first compound 0.0001 µM): 69.1%
- viability, T/C [11]: 76.6%
- viability, T/C [12]: 65.9%
- viability, T/C [13]: 58.4%
- viability, T/C [14]: 35.3%
- viability, T/C [15]: 12.3%
- viability, T/C (second compound 3.16 µM, first compound 0.0001 µM): 1.97%
- viability, T/C [16]: 0.17%
- viability, T/C [17]: 7.16%
- viability, T/C [18]: 2.18%
- viability, T/C [19]: 8.31%
- viability, T/C [20]: 1.89%
- viability, T/C (second compound 10 µM, first compound 0.0001 µM): 2.4%
- viability, T/C [21]: 1.9%
- viability, T/C [22]: 0.16%
- viability, T/C [23]: 0.16%
- viability, T/C [24]: 4.06%
- viability, T/C [25]: 0.45%

SMILES: CN(C)C/C=C/C(=O)Nc1cc2c(Nc3ccc(F)c(Cl)c3)ncnc2cc1O[C@H]1CCOC1 + CNCc1ccccc1-c1csc(C(C)Nc2nc(C)nc3cc(OC)c(OC)cc23)c1
- IC50 (second compound 0.1 µM): > 100 nM
- IC50 (second compound 0.316 µM): > 100 nM
- IC50 (second compound 1 µM): > 100 nM
- IC50 (second compound 3.16 µM): 1.98 nM
- IC50 (second compound 10 µM): < 0.316 nM
- viability, T/C [1]: 82.2%
- viability, T/C [2]: 77.5%
- viability, T/C [3]: 79.8%
- viability, T/C [4]: 81.3%
- viability, T/C [5]: 55%
- viability, T/C [26]: 53.6%
- viability, T/C [6]: 82.9%
- viability, T/C [7]: 77.8%
- viability, T/C [8]: 64.8%
- viability, T/C [9]: 71.9%
- viability, T/C [10]: 58.3%
- viability, T/C [27]: 56.7%
- viability, T/C [11]: 98.4%
- viability, T/C [12]: 68.2%
- viability, T/C [13]: 59.1%
- viability, T/C [14]: 50.7%
- viability, T/C [15]: 50.8%
- viability, T/C [28]: 53%
- viability, T/C [16]: 94.9%
- viability, T/C [17]: 106%
- viability, T/C [18]: 0.33%
- viability, T/C [19]: 0.98%
- viability, T/C [20]: 58.9%
- viability, T/C [29]: 2.28%
- viability, T/C [21]: 0.34%
- viability, T/C [22]: 0.24%
- viability, T/C [23]: 0.21%
- viability, T/C [24]: 0.52%
- viability, T/C [25]: 0.26%
- viability, T/C [30]: 0.44%

SMILES: COC(=O)c1ccc2c(C(=Nc3ccc(N(C)C(=O)CN4CCN(C)CC4)cc3)c3ccccc3)c(O)[nH]c2c1 + CNCc1ccccc1-c1csc(C(C)Nc2nc(C)nc3cc(OC)c(OC)cc23)c1
- IC50 (second compound 0.1 µM): 3030 nM
- IC50 (second compound 0.316 µM): 1840 nM
- IC50 (second compound 1 µM): 3280 nM
- IC50 (second compound 3.16 µM): < 31.6 nM
- IC50 (second compound 10 µM): < 31.6 nM
- viability, T/C [5]: 91%
- viability, T/C [26]: 105%
- viability, T/C [31]: 120%
- viability, T/C [32]: 134%
- viability, T/C [33]: 47.5%
- viability, T/C [34]: 0.53%
- viability, T/C [10]: 83.7%
- viability, T/C [27]: 93.3%
- viability, T/C [35]: 107%
- viability, T/C [36]: 120%
- viability, T/C [37]: 5.04%
- viability, T/C [38]: 0.18%
- viability, T/C [15]: 84.1%
- viability, T/C [28]: 90.1%
- viability, T/C [39]: 110%
- viability, T/C [40]: 110%
- viability, T/C [41]: 51.7%
- viability, T/C [42]: 1.19%
- viability, T/C [20]: 2.05%
- viability, T/C [29]: 1.85%
- viability, T/C [43]: 2.08%
- viability, T/C [44]: 1.25%
- viability, T/C [45]: 0.14%
- viability, T/C [46]: 1.34%
- viability, T/C [25]: 0.42%
- viability, T/C [30]: 1.27%
- viability, T/C [47]: 0.48%
- viability, T/C [48]: 0.14%
- viability, T/C [49]: 2.49%
- viability, T/C [50]: 0.86%

SMILES: O=C(c1cc(Cc2n[nH]c(=O)c3ccccc23)ccc1F)N1CCN(C(=O)C2CC2)CC1 + CNCc1ccccc1-c1csc(C(C)Nc2nc(C)nc3cc(OC)c(OC)cc23)c1
- IC50 (second compound 0.1 µM): > 10000 nM
- IC50 (second compound 0.316 µM): > 10000 nM
- IC50 (second compound 1 µM): > 10000 nM
- IC50 (second compound 3.16 µM): < 31.6 nM
- IC50 (second compound 10 µM): < 31.6 nM
- viability, T/C [5]: 72.8%
- viability, T/C [26]: 79.4%
- viability, T/C [31]: 75.4%
- viability, T/C [32]: 71.6%
- viability, T/C [33]: 66.7%
- viability, T/C [34]: 71.9%
- viability, T/C [10]: 65.6%
- viability, T/C [27]: 65.3%
- viability, T/C [35]: 64.6%
- viability, T/C [36]: 62%
- viability, T/C [37]: 56.5%
- viability, T/C [38]: 66.5%
- viability, T/C [15]: 61.3%
- viability, T/C [28]: 68.7%
- viability, T/C [39]: 62.8%
- viability, T/C [40]: 55%
- viability, T/C [41]: 64.3%
- viability, T/C [42]: 62.9%
- viability, T/C [20]: 1.32%
- viability, T/C [29]: 3.56%
- viability, T/C [43]: 0.56%
- viability, T/C [44]: 0.32%
- viability, T/C [45]: 3.02%
- viability, T/C [46]: 0.56%
- viability, T/C [25]: 0.13%
- viability, T/C [30]: 0.47%
- viability, T/C [47]: 1.37%
- viability, T/C [48]: 0.65%
- viability, T/C [49]: 0.77%
- viability, T/C [50]: 0.19%
